One assay addresses T1, RARβ (Homo sapiens, UniProt P10826).
T1 sequence (P10826 183-417 limits assumed): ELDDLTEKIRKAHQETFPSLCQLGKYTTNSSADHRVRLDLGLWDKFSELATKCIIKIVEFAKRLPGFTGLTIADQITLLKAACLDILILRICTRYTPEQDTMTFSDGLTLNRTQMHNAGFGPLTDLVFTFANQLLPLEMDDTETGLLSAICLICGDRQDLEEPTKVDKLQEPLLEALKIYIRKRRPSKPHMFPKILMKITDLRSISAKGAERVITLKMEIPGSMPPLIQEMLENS
As to the kind of experiment: chimeric receptor transactivation assay, RARβ. Format: cell-based. An outline of the steps:
(§1)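 Cells carrying either full-length RXR (holoreceptor) or chimeric RAR receptors were exposed to compound and reporter transactivation recorded. Potency was expressed as EC50 in nanomolar. Efficacy was expressed as percent of the maximal response of a reference cyclopropyl-tetramethyltetrahydronaphthalene penta-2,4-dienoic acid.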

A further assay addresses T2, RXRγ (UniProt P28705).
T2 sequence (P28705 1-463): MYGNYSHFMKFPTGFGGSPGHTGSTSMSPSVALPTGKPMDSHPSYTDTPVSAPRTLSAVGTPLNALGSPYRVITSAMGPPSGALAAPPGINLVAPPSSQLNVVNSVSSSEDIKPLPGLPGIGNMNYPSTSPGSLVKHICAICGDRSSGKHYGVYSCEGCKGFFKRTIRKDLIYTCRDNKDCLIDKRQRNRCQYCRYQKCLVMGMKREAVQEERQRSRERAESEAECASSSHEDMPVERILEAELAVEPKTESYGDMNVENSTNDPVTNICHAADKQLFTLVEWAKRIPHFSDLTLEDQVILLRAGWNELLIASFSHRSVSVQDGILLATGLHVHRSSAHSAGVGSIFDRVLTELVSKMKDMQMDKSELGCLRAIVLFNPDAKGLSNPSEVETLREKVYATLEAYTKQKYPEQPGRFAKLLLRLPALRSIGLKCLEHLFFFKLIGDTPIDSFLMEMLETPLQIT
As to the kind of experiment: holoreceptor transactivation assay, RXRγ. Format: cell-based. In a few lines:
as §1

In the next assay the target is T3, RARγ (Homo sapiens, UniProt P13631).
T3 sequence (P13631 1-454): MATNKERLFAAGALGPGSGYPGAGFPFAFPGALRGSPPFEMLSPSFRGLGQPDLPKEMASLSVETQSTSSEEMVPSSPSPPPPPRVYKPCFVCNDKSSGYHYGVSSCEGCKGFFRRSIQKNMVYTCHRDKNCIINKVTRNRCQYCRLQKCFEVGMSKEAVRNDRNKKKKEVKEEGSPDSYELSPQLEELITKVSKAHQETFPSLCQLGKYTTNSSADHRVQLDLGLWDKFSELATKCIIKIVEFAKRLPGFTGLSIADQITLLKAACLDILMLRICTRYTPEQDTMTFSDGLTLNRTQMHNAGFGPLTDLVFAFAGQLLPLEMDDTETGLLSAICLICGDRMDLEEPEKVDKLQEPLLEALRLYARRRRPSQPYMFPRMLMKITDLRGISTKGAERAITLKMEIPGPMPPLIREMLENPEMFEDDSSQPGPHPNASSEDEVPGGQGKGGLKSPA
Put plainly: ligand binding assay, RARγ. As to conditions: read-out: RAR Bind. Ki γ. In a few lines:
(§2)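 Binding of compounds to several retinoid receptor subtypes was measured. Results are given as Ki values in nanomolar concentration, derived per Cheng et al.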

Another assay addresses T4, RXRβ (UniProt P28704).
T4 sequence (P28704 1-520): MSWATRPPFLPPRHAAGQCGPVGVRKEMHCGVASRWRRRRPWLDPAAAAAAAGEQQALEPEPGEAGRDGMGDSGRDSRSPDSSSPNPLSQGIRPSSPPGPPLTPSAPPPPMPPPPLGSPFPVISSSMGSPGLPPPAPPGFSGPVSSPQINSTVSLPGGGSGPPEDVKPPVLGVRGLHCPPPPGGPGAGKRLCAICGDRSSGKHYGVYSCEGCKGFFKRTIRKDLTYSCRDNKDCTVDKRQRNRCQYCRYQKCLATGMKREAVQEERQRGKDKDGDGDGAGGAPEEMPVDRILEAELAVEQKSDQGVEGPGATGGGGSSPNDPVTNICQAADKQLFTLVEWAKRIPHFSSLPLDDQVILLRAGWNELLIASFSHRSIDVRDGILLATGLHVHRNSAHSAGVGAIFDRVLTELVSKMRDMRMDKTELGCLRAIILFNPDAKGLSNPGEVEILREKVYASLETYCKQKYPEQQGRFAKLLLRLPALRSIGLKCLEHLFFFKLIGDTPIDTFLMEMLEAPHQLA
As to the kind of experiment: ligand binding assay, RXRβ. The following applies: read-out: RXR Bind Ki β. In a few lines: as §2

For the compound `CCOc1cc2c(cc1\C(C)=C/C=C/C(C)=C/C(=O)O)C(C(C)(C)C)=CCC2(C)C` [Compound A-17, 7-(8-tert-Butyl-3-ethyloxy-5,5-dimethyl-5,6-dihydronaphthalen-2-yl)-3-methyl-octa-2E,4E,6Z-trienoic acid], the EC50 (in general, the concentration that produces a half-maximal response) turned out to be 50 nM on RARβ (chimeric receptor transactivation, read-out: RAR Trans. EC50 β) and 0.9 nM at RXRγ (holoreceptor transactivation, read-out: RXR Trans. EC50 γ). Also, the Emax on RARβ (percentage compared to the standard compound, read-out: RAR Trans. efficacy (number in parentheses) β) worked out at 7%. Also, the “RXR Trans. efficacy (number in parentheses) γ” value on RXRγ (percentage compared to the standard compound) was 73%. The Ki (as a rule, the dissociation constant of the complex between target and ligand, obtained from inhibition or displacement) on RARγ was found to be 1900 nM; at RXRβ it was 16 nM.

These data come from patent US6887896B1, “7-[(7-Alkoxy)-chrom-3-en-6-yl]-heptatrienoic acid and 7-[(3-alkoxy)-5,6-dihydronaphthalen-2-yl]-heptatrienoic acid derivatives having serum glucose reducing activity” (Allergan, Inc., priority 2003, dated 2005).
